Measured values as given in ChEMBL document CHEMBL4007472, “Identification of novel TACE inhibitors compatible with topical application” (Bioorg Med Chem Lett, 2017).
Values after ≈ are worked out from the molar mass of the structure shown.

Key:
[1] = biological target: T1, Disintegrin and metalloproteinase domain-containing protein 17 (Homo sapiens, UniProt P78536); experiment: Inhibition of TACE (unknown origin)
[2] = biological target: T1, Disintegrin and metalloproteinase domain-containing protein 17; experiment: Inhibition of TACE (unknown origin) by cell based assay
[3] = biological target: T1, Disintegrin and metalloproteinase domain-containing protein 17; experiment: Inhibition of recombinant human TACE catalytic domain using Mca-Pro-Leu-Ala-Gln-Ala-Val-Dpa-Arg-Ser-Ser-Ser-Arg-NH2 as substrate after 2 hrs by fluorescence assay
[4] = Stability in human liver microsomes assessed as parent compound remaining at 1 uM after 15 mins by LC-MS/MS analysis; type: ADME, microsome; conditions: read-out: Stability
[5] = biological target: T1, Disintegrin and metalloproteinase domain-containing protein 17; experiment: Inhibition of TACE in NHEK assessed as reduction in LPS/TPA-stimulated TNFalpha production preincubated for 1 hr followed by LPS/TPA stimulation for 24 hrs by HTRF assay
[6] = biological target: Disintegrin and metalloproteinase domain-containing protein 17 (Sus scrofa, UniProt O77636); experiment: Inhibition of porcine spleen TACE using Mca-Pro-LeuAla-Gln-Ala-Val-Dpa-Arg-Ser-Ser-Ser-[…]-NH2 as substrate by fluorescence assay
Chain of Disintegrin and metalloproteinase domain-containing protein 17 (Sus scrofa, UniProt O77636) (O77636 whole entry, the tested form may be a part): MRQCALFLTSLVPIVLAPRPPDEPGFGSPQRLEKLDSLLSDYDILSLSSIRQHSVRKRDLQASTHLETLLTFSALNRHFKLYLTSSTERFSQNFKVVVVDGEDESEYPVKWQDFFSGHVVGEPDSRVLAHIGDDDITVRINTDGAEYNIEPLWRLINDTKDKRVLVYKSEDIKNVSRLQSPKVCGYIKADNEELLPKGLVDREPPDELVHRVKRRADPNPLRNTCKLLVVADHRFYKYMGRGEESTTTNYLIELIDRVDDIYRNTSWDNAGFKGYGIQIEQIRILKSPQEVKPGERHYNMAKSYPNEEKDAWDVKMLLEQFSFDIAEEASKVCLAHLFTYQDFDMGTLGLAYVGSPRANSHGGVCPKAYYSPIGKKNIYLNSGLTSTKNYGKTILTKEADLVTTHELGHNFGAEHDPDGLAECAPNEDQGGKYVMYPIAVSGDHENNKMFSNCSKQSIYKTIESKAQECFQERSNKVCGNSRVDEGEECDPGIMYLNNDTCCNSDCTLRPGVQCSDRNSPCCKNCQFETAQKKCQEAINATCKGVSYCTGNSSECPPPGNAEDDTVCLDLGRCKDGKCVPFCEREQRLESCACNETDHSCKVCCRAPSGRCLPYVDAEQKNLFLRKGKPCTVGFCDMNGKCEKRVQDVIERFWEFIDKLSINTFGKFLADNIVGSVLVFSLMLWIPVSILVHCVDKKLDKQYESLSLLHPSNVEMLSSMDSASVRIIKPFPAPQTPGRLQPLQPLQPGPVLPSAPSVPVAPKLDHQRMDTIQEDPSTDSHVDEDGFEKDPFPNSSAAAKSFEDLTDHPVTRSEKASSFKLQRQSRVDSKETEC

[7] = biological target: T1, Disintegrin and metalloproteinase domain-containing protein 17; experiment: Inhibition of TACE in human PBMC assessed as inhibition of LPS-stimulated TNFalpha production
[8] = Aqueous solubility of the compound; type: physicochemical
[9] = biological target: T1, Disintegrin and metalloproteinase domain-containing protein 17; experiment: Inhibition of recombinant TACE catalytic domain (unknown origin) using Abz-LAQAVRSSSR-Dpa as substrate preincubated for 10 mins followed by substrate addition measured after 10 mins by FRET assay; conditions: read-out: IC50
[10] = biological target: Disintegrin and metalloproteinase domain-containing protein 17 (Mus musculus, UniProt Q9Z0F8); experiment: Inhibition of TACE in mouse RAW264.7 cells assessed as inhibition of LPS-stimulated TNFalpha production pretreated for 1 hr followed by LPS stimulation for 4 hrs by ELISA; type: cell-based; conditions: read-out: IC50
Chain of Disintegrin and metalloproteinase domain-containing protein 17 (Mus musculus, UniProt Q9Z0F8) (Q9Z0F8 whole entry, the tested form may be a part): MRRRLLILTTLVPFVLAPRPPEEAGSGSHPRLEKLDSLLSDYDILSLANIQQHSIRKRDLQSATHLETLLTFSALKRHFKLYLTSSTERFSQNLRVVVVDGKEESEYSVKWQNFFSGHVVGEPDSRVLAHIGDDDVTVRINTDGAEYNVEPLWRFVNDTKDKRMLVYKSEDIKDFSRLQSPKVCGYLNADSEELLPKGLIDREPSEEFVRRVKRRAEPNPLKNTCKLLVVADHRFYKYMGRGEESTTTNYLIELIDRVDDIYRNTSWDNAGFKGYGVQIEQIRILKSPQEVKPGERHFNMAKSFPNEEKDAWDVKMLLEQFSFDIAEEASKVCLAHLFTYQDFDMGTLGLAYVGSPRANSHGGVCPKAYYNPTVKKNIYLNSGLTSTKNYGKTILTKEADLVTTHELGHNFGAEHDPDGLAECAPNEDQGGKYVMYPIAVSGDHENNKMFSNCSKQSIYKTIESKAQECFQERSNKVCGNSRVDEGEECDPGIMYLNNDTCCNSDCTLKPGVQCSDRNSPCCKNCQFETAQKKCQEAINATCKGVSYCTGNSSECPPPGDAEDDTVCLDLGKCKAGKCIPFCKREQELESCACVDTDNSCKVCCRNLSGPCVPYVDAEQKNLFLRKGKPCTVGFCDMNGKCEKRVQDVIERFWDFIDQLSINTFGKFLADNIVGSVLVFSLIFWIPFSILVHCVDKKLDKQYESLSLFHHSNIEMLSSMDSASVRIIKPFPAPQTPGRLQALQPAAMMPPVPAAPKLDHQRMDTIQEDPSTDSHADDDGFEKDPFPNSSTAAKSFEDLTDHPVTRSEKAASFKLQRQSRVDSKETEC

T1 sequence (P78536 whole entry, the tested form may be a part): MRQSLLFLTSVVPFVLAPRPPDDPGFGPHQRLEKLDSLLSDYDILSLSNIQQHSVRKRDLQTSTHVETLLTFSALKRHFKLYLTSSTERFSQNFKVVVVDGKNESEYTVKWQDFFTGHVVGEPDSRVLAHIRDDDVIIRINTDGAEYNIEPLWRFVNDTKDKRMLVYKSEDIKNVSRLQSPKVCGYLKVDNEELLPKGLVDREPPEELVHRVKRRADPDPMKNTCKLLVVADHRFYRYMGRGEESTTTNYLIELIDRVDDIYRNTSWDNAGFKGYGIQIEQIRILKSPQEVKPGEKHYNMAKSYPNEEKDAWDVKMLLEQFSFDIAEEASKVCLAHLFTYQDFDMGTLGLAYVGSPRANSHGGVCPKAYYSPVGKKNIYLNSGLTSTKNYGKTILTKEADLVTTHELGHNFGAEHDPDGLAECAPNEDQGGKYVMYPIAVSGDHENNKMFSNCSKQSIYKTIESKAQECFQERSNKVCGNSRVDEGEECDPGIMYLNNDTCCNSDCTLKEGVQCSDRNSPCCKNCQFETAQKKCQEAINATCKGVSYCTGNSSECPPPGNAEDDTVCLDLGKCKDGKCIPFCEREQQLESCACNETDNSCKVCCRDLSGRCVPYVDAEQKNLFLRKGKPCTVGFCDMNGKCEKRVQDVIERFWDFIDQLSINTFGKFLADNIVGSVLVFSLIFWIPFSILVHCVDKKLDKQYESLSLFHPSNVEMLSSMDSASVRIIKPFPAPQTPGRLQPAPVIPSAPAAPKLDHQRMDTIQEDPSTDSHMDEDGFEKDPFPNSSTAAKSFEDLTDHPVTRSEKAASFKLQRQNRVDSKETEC

`COCCOc1cc(CCC[C@H]2C(=O)N[C@H](C(=O)c3ccccc3)Cc3ccc(cc3)OCCCC[C@@H]2C(=O)NO)cc(OC)c1` showed an IC50 [1] of 79.4 nM and an IC50 ([2]; read-out: pIC50 (converted)) of 15800 nM.
`CNC(=O)[C@@H]1Cc2ccc(cc2)OCCCC[C@H](C(=O)NO)[C@@H](CCCc2ccc(Cl)cc2)C(=O)N1` showed an IC50 [1] of 3.16 nM and an IC50 ([2]; read-out: pIC50 (converted)) of 398 nM.
Molecule `CNC(=O)[C@@H]1Cc2ccc(cc2)OCCCC[C@H](C(=O)NO)[C@@H](CCCc2cc(C(F)(F)F)cc(C(F)(F)F)c2)C(=O)N1` has an IC50 [1] of 31.6 nM and an IC50 ([2]; read-out: pIC50 (converted)) of 316 nM.
In the case of `Cc1cc(COc2ccc(S(=O)(=O)N3CCN(C4CCC4)C(C(=O)NO)C3)cc2)c2c(n1)CCCC2` (centres undefined), the IC50 [3] is reported as 150 nM, the remaining at […], 1 µM [4] is reported as 54% and the IC50 [5] is reported as over 10000 nM.
With `C[C@H](C(=O)NO)N1CCNc2cc(Oc3ccc([N+](=O)[O-])cc3)ccc2S1` the IC50 [6] was 11 nM and the IC50 [7] was 1200 nM.
`C[C@H](C(=O)NO)N1CCNc2cc(OCc3cc(Cl)cc(Cl)c3)ccc2S1` showed an IC50 [6] of 153 nM and an IC50 [7] of 940 nM.
Work on `CCOc1cc(COc2ccc3c(c2)NCCN([C@H](CCC(=O)OC)C(=O)NO)S3)cc(OCC)c1` yielded an IC50 [6] of 242 nM and an IC50 [7] of 6200 nM.
`CC(C)C[C@H](C(=O)NO)N1CCNc2cc(O)ccc2S1` gave an IC50 [6] of 89 nM and an IC50 [7] of 9500 nM.
Molecule `Cc1cc(COc2ccc(S(=O)(=O)N3CCN(S(C)(=O)=O)C(C(=O)NO)C3)cc2)c2c(n1)CCCC2` (centres undefined) has an IC50 [3] of 29 nM and a remaining at […], 1 µM [4] of 88%.
In the case of `C[C@H](C(=O)NO)N1CCNc2cc(Oc3ccc(C(F)(F)F)cc3)ccc2S1`, the IC50 [6] is reported as 758 nM and the IC50 [7] is reported as 840 nM.
`Cc1cc(COc2ccc(S(=O)(=O)NC[C@@H](C(=O)NO)N3CCCCC3)cc2)c2c(n1)CCCC2` showed an IC50 [3] of 6 nM and an IC50 [5] of 60 nM.
For `Cc1cc(COc2ccc(S(=O)(=O)N3CCCC(C(=O)NO)C3)cc2)c2ccccc2n1` (centres undefined), the IC50 [3] was 60 nM, the IC50 [5] was over 10000 nM and the solubility [8] was under 1 µM.
Work on `Cc1cc(COc2ccc(S(=O)(=O)N3CCC(C)(C(=O)NO)C3)cc2)c2ccccc2n1` (centres undefined) yielded an IC50 [3] of 35 nM, an IC50 [5] of over 10000 nM and a solubility [8] of 41 µM (≈ 18.7 µg/mL).
In the case of `Cc1cc(COc2ccc(S(=O)(=O)N3CCN(C(=O)C(C)C)C(C(=O)NO)C3)cc2)c2c(n1)CCCC2` (centres undefined), the IC50 [3] is reported as 26 nM and the remaining at […], 1 µM [4] is reported as 91%.
`CCOc1cc(COc2ccc3c(c2)NCCN([C@H](CCCC(=O)OC)C(=O)NO)S3)cc(OCC)c1` gave an IC50 [6] of 13 nM and an IC50 [7] of 1100 nM.
`Cc1cc(COc2ccc(S(=O)(=O)N3CCN(C(=O)C4CC4)C(C(=O)NO)C3)cc2)c2c(n1)CCCC2` (centres undefined) showed an IC50 [3] of 13 nM, a remaining at […], 1 µM [4] of 88% and an IC50 [5] of 3100 nM. It also gave a solubility [8] of 58 µM (≈ 30.7 µg/mL).
In the case of `CC(C)C[C@H](C(=O)NO)N1CCNc2cc(OCc3ccccc3)ccc2S1`, the IC50 [6] is reported as 177 nM and the IC50 [7] is reported as 350 nM.
With `Cc1cc(COc2ccc(S(=O)(=O)N3CCN(C)C(C(=O)NO)C3)cc2)c2c(n1)CCCC2` (centres undefined) the IC50 [3] was 160 nM and the remaining at […], 1 µM [4] was 80%.
`Cc1cc(COc2ccc(S(=O)(=O)N3CCN(C(=O)CC(C)C)C(C(=O)NO)C3)cc2)c2c(n1)CCCC2` (centres undefined) showed an IC50 [3] of 23 nM and a remaining at […], 1 µM [4] of 64%.
In the case of `Cc1cc(COc2ccc3c(c2)NCCN([C@H](C)C(=O)NO)S3)cc(C)n1`, the IC50 [6] is reported as 544 nM and the IC50 [7] is reported as 2900 nM.
Work on `Cc1cc(COc2ccc(S(=O)(=O)N3CCC(C(=O)NO)C3)cc2)c2c(n1)CCCC2` (centres undefined) yielded an IC50 [3] of 210 nM and an IC50 [5] of over 10000 nM.
`CC(=O)N1C[C@@H](S(=O)(=O)c2ccc(OCc3cc(C)nc4c3CCCC4)cc2)C[C@H]1C(=O)NO` gave an IC50 [3] of 350 nM and an IC50 [5] of over 10000 nM.
Work on `COc1cc(COc2ccc3c(c2)NCCN([C@H](CCCCNS(C)(=O)=O)C(=O)NO)S3)cc(OC)c1` yielded an IC50 [6] of 5 nM and an IC50 [7] of 1900 nM.
In the case of `COC(=O)CCC[C@H](C(=O)NO)N1CCNc2cc(OCc3cc(OC)cc(OC)c3)ccc2S1`, the IC50 [6] is reported as 10 nM and the IC50 [7] is reported as 900 nM.
`COc1cc(COc2ccc3c(c2)NCCN([C@H](CC(C)C)C(=O)NO)S3)cc(OC)c1` gave an IC50 [6] of 17 nM and an IC50 [7] of 5400 nM.
With `Cc1cc(COc2ccc(S(=O)(=O)N3CCN(C(=O)c4ccccc4)C(C(=O)NO)C3)cc2)c2c(n1)CCCC2` (centres undefined) the IC50 [3] was 16 nM and the remaining at […], 1 µM [4] was 85%.
`Cc1nc(COc2ccc3c(c2)NCCN([C@@H](C(=O)NO)C(C)C)S3)sc1C` showed an IC50 [6] of 290 nM and an IC50 [7] of 24500 nM.
With `C[C@H](C(=O)NO)N1CCNc2cc(Oc3cccc([N+](=O)[O-])c3)ccc2S1` the IC50 [6] was 129 nM and the IC50 [7] was 470 nM.
Work on `COC(=O)CC[C@H](C(=O)NO)N1CCNc2cc(OCc3cc(OC)cc(OC)c3)ccc2S1` yielded an IC50 [6] of 177 nM and an IC50 [7] of 7200 nM.
Work on `COc1cc(COc2ccc3c(c2)NCCN([C@H](C)C(=O)NO)S3)cc(OC)c1` yielded an IC50 [6] of 27 nM and an IC50 [7] of 770 nM.
With `COC(=O)N1CCN(S(=O)(=O)c2ccc(OCc3cc(C)nc4c3CCCC4)cc2)CC1C(=O)NO` (centres undefined) the IC50 [3] was 40 nM and the remaining at […], 1 µM [4] was 100%.
In the case of `Cc1cc(COc2ccc(S(=O)(=O)N3CCN(C(=O)C4CCC4)C(C(=O)NO)C3)cc2)c2c(n1)CCCC2` (centres undefined), the IC50 [3] is reported as 19 nM and the remaining at […], 1 µM [4] is reported as 83%.
Work on `Cc1cc(COc2ccc(S(=O)(=O)N3Cc4ccccc4C(C(=O)NO)C3)cc2)c2ccccc2n1` (centres undefined) yielded an IC50 [3] of 84 nM and an IC50 [5] of over 10000 nM.
For `CCOc1cc(COc2ccc3c(c2)NCCN([C@@H](C(=O)NO)C(C)C)S3)cc(OCC)c1`, the IC50 [6] was 51 nM and the IC50 [7] was 8200 nM.
Molecule `CCC(=O)N1CCN(S(=O)(=O)c2ccc(OCc3cc(C)nc4c3CCCC4)cc2)CC1C(=O)NO` (centres undefined) has an IC50 [3] of 23 nM and a remaining at […], 1 µM [4] of 100%.
`CC(=O)N1CCN(S(=O)(=O)c2ccc(OCc3cc(C)nc4c3CCCC4)cc2)CC1C(=O)NO` (centres undefined) showed an IC50 [3] of 14 nM, a remaining at […], 1 µM [4] of 92% and an IC50 [5] of 9100 nM. For the same molecule, the solubility [8] was 61 µM (≈ 30.7 µg/mL).
`COc1cc(COc2ccc3c(c2)NCCN([C@@H](C(=O)NO)C(C)C)S3)cc(OC)c1` showed an IC50 [6] of 10 nM and an IC50 [7] of 4000 nM.
Molecule `CCOc1cc(COc2ccc3c(c2)NCCN([C@H](C)C(=O)NO)S3)cc(OCC)c1` has an IC50 [6] of 81 nM and an IC50 [7] of 4500 nM.
Work on `O=C(c1ccccc1)[C@@H]1Cc2ccc(cc2)OCCCC[C@H](C(=O)NO)[C@@H](CCCc2cc(Br)cc(Br)c2)C(=O)N1` yielded an IC50 [1] of 79.4 nM and an IC50 ([2]; read-out: IC50) of 5000 nM.
In the case of `CNC(=O)[C@@H]1Cc2ccc(cc2)OCCCC[C@H](C(=O)NO)[C@@H](CCCc2cc(OC)ccc2OC)C(=O)N1`, the IC50 [1] is reported as 6.31 nM and the IC50 ([2]; read-out: pIC50 (converted)) is reported as 3980 nM.
For `Cc1cc(COc2ccc(S(=O)(=O)N(C)C3C(C(=O)NO)[C@@H]4CC[C@H]3O4)cc2)c2ccccc2n1` (relative stereo; form 2), the IC50 [9] was 2 nM and the IC50 [10] was 18 nM.
